Assay results taken from PubChem BioAssay AID2060625 (Molecular Pharmacology Branch, DTP, NCI, 2025).

Tested on: 186277-243-T-J2-PDC spheroids with HUVEC/MSC, viability
Experiment: Anticancer human tumor 186277-243-T-J2-PDC patient-derived colon adenocarcinoma cell line growth inhibition [CLK]
Details: for IC50: curve of first compound; for viability, T/C: stronger effect = lower value; active = viability on the fitted dose curve at most 10% of control; inactive = the rest
Outline: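 Multi-cell-type spheroids combined patient-derived tumor cells with HUVEC endothelial cells and human mesenchymal stem cells. Paired agents were dosed in half-log steps down from about clinical Cmax, or from 10 microM where Cmax was unknown.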

[1] = second compound 0.0316 µM, first compound 0.0316 µM
[2] = second compound 0.0316 µM, first compound 0.1 µM
[3] = second compound 0.0316 µM, first compound 0.316 µM
[4] = second compound 0.0316 µM, first compound 1 µM
[5] = second compound 0.0316 µM, first compound 3.16 µM
[6] = second compound 0.0316 µM, first compound 10 µM
[7] = second compound 0.1 µM, first compound 0.0316 µM
[8] = second compound 0.1 µM, first compound 0.1 µM
[9] = second compound 0.1 µM, first compound 0.316 µM
[10] = second compound 0.1 µM, first compound 1 µM
[11] = second compound 0.1 µM, first compound 3.16 µM
[12] = second compound 0.1 µM, first compound 10 µM
[13] = second compound 0.316 µM, first compound 0.0316 µM
[14] = second compound 0.316 µM, first compound 0.1 µM
[15] = second compound 0.316 µM, first compound 0.316 µM
[16] = second compound 0.316 µM, first compound 1 µM
[17] = second compound 0.316 µM, first compound 3.16 µM
[18] = second compound 0.316 µM, first compound 10 µM
[19] = second compound 1 µM, first compound 0.0316 µM
[20] = second compound 1 µM, first compound 0.1 µM
[21] = second compound 1 µM, first compound 0.316 µM
[22] = second compound 1 µM, first compound 1 µM
[23] = second compound 1 µM, first compound 3.16 µM
[24] = second compound 1 µM, first compound 10 µM
[25] = second compound 3.16 µM, first compound 0.0316 µM
[26] = second compound 3.16 µM, first compound 0.1 µM
[27] = second compound 3.16 µM, first compound 0.316 µM
[28] = second compound 3.16 µM, first compound 1 µM
[29] = second compound 3.16 µM, first compound 3.16 µM
[30] = second compound 3.16 µM, first compound 10 µM
[31] = second compound 10 µM, first compound 0.0316 µM
[32] = second compound 10 µM, first compound 0.1 µM
[33] = second compound 10 µM, first compound 0.316 µM
[34] = second compound 10 µM, first compound 1 µM
[35] = second compound 10 µM, first compound 3.16 µM
[36] = second compound 10 µM, first compound 10 µM
[37] = second compound 0.0316 µM, first compound 0.00316 µM
[38] = second compound 0.0316 µM, first compound 0.01 µM
[39] = second compound 0.1 µM, first compound 0.00316 µM
[40] = second compound 0.1 µM, first compound 0.01 µM
[41] = second compound 0.316 µM, first compound 0.00316 µM
[42] = second compound 0.316 µM, first compound 0.01 µM
[43] = second compound 1 µM, first compound 0.00316 µM
[44] = second compound 1 µM, first compound 0.01 µM
[45] = second compound 3.16 µM, first compound 0.00316 µM
[46] = second compound 3.16 µM, first compound 0.01 µM
[47] = second compound 10 µM, first compound 0.00316 µM
[48] = second compound 10 µM, first compound 0.01 µM
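Also: compound exposure lasted seven days before readout.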
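For viability, T/C in this document: 100% = DMSO vehicle control wells.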

CC(=O)O[C@H]1C(=O)[C@@]2(C)[C@H]([C@H](OC(=O)c3ccccc3)[C@]3(O)C[C@H](OC(=O)[C@H](O)[C@@H](NC(=O)c4ccccc4)c4ccccc4)C(C)=C1C3(C)C)[C@]1(OC(C)=O)CO[C@@H]1C[C@@H]2O + CN1CCN(c2cc(C(=O)Nc3cc4cc(-c5cnn(C)c5)ccc4cn3)ccn2)CC1
< 31.6 nM: IC50 (second compound 0.0316 µM) | IC50 (second compound 0.1 µM) | IC50 (second compound 0.316 µM) | IC50 (second compound 1 µM) | IC50 (second compound 3.16 µM) | IC50 (second compound 10 µM)
inactive: viability, T/C [1] 15.6% | viability, T/C [2] 13.7% | viability, T/C [3] 8.66% | viability, T/C [4] 12.4% | viability, T/C [7] 14.4% | viability, T/C [8] 14.6% | viability, T/C [9] 11.3% | viability, T/C [10] 11.4% | viability, T/C [11] 10.2% | viability, T/C [13] 13.3% | viability, T/C [14] 13.2% | viability, T/C [15] 12.5% | viability, T/C [16] 12.5% | viability, T/C [17] 13.6% | viability, T/C [18] 12.1%
active: viability, T/C [5] 9.25% | viability, T/C [6] 8.97% | viability, T/C [12] 10.2% | viability, T/C [19] 2.45% | viability, T/C [20] 1.65% | viability, T/C [21] 0.61% | viability, T/C [22] 3.85% | viability, T/C [23] 1.22% | viability, T/C [24] 0.69% | viability, T/C [25] 0.85% | viability, T/C [26] 1.39% | viability, T/C [27] 0.92% | viability, T/C [28] 2.55% | viability, T/C [29] 2.07% | viability, T/C [30] 1.24% | viability, T/C [31] 1.95% | viability, T/C [32] 3.43% | viability, T/C [33] 0.65% | viability, T/C [34] 0.96% | viability, T/C [35] 1.3% | viability, T/C [36] 0.72%

CCc1c2c(nc3ccc(O)cc13)-c1cc3c(c(=O)n1C2)COC(=O)[C@]3(O)CC + CN1CCN(c2cc(C(=O)Nc3cc4cc(-c5cnn(C)c5)ccc4cn3)ccn2)CC1
22.6 nM: IC50 (second compound 0.0316 µM)
active: viability, T/C [14] 8.65% | viability, T/C [15] 2.67% | viability, T/C [16] 1.34% | viability, T/C [43] 1.11% | viability, T/C [44] 3.1% | viability, T/C [19] 1.69% | viability, T/C [20] 0.66% | viability, T/C [21] 1.14% | viability, T/C [22] 1.75% | viability, T/C [45] 0.95% | viability, T/C [46] 2.49% | viability, T/C [25] 1.5% | viability, T/C [26] 1.25% | viability, T/C [27] 2.1% | viability, T/C [28] 1.56% | viability, T/C [47] 0.8% | viability, T/C [48] 1.71% | viability, T/C [31] 0.41% | viability, T/C [32] 1.3% | viability, T/C [33] 0.67% | viability, T/C [34] 0.26%
< 3.16 nM: IC50 (second compound 0.316 µM) | IC50 (second compound 1 µM) | IC50 (second compound 3.16 µM) | IC50 (second compound 10 µM)
14.1 nM: IC50 (second compound 0.1 µM)
inactive: viability, T/C [37] 82.2% | viability, T/C [38] 73.1% | viability, T/C [1] 39.9% | viability, T/C [2] 22.3% | viability, T/C [3] 19.1% | viability, T/C [4] 14.1% | viability, T/C [39] 66.9% | viability, T/C [40] 58.6% | viability, T/C [7] 31.4% | viability, T/C [8] 17.5% | viability, T/C [9] 14.3% | viability, T/C [10] 8.76% | viability, T/C [41] 17.9% | viability, T/C [42] 19% | viability, T/C [13] 14.4%

Cn1ncnc1[C@H]1c2n[nH]c(=O)c3cc(F)cc(c23)N[C@@H]1c1ccc(F)cc1 + CN1CCN(c2cc(C(=O)Nc3cc4cc(-c5cnn(C)c5)ccc4cn3)ccn2)CC1
active: viability, T/C (second compound 1 µM, first compound 0.000316 µM) 2.81% | viability, T/C (second compound 1 µM, first compound 0.001 µM) 0.25% | viability, T/C [43] 0.86% | viability, T/C [44] 2.93% | viability, T/C [19] 1.61% | viability, T/C [20] 0.53% | viability, T/C (second compound 3.16 µM, first compound 0.000316 µM) 2.49% | viability, T/C (second compound 3.16 µM, first compound 0.001 µM) 0.69% | viability, T/C [45] 1.36% | viability, T/C [46] 1.46% | viability, T/C [25] 2.26% | viability, T/C [26] 0.62% | viability, T/C (second compound 10 µM, first compound 0.000316 µM) 1.78% | viability, T/C (second compound 10 µM, first compound 0.001 µM) 0.48% | viability, T/C [47] 0.42% | viability, T/C [48] 0.58% | viability, T/C [31] 0.53% | viability, T/C [32] 0.46%
> 100 nM: IC50 (second compound 0.0316 µM) | IC50 (second compound 0.1 µM)
inactive: viability, T/C (second compound 0.0316 µM, first compound 0.000316 µM) 86.9% | viability, T/C (second compound 0.0316 µM, first compound 0.001 µM) 104% | viability, T/C [37] 108% | viability, T/C [38] 114% | viability, T/C [1] 95.1% | viability, T/C [2] 113% | viability, T/C (second compound 0.1 µM, first compound 0.000316 µM) 73.9% | viability, T/C (second compound 0.1 µM, first compound 0.001 µM) 75.6% | viability, T/C [39] 69% | viability, T/C [40] 82.6% | viability, T/C [7] 69.8% | viability, T/C [8] 58.6% | viability, T/C (second compound 0.316 µM, first compound 0.000316 µM) 20.9% | viability, T/C (second compound 0.316 µM, first compound 0.001 µM) 19.2% | viability, T/C [41] 22.7% | viability, T/C [42] 20% | viability, T/C [13] 21.9% | viability, T/C [14] 19.8%
< 0.316 nM: IC50 (second compound 0.316 µM) | IC50 (second compound 1 µM) | IC50 (second compound 3.16 µM) | IC50 (second compound 10 µM)

Nc1ccn(C2OC(CO)C(O)C2(F)F)c(=O)n1 (stereo not given) + CN1CCN(c2cc(C(=O)Nc3cc4cc(-c5cnn(C)c5)ccc4cn3)ccn2)CC1
< 31.6 nM: IC50 (second compound 0.0316 µM) | IC50 (second compound 0.1 µM) | IC50 (second compound 0.316 µM) | IC50 (second compound 1 µM) | IC50 (second compound 3.16 µM) | IC50 (second compound 10 µM)
active: viability, T/C [17] 8.4% | viability, T/C [18] 7.19% | viability, T/C [19] 1.75% | viability, T/C [20] 1.77% | viability, T/C [21] 1.48% | viability, T/C [22] 0.16% | viability, T/C [23] 0.64% | viability, T/C [24] 0.64% | viability, T/C [25] 1.77% | viability, T/C [26] 1.46% | viability, T/C [27] 0.93% | viability, T/C [28] 4.16% | viability, T/C [29] 2.01% | viability, T/C [30] 0.57% | viability, T/C [31] 0.82% | viability, T/C [32] 0.83% | viability, T/C [33] 0.9% | viability, T/C [34] 1.08% | viability, T/C [35] 0.95% | viability, T/C [36] 0.6%
inactive: viability, T/C [1] 14% | viability, T/C [2] 14.4% | viability, T/C [3] 13.2% | viability, T/C [4] 15.4% | viability, T/C [5] 15.7% | viability, T/C [6] 15% | viability, T/C [7] 14.1% | viability, T/C [8] 15.4% | viability, T/C [9] 13.7% | viability, T/C [10] 15.4% | viability, T/C [11] 13.6% | viability, T/C [12] 13.5% | viability, T/C [13] 14.8% | viability, T/C [14] 12.4% | viability, T/C [15] 13.9% | viability, T/C [16] 12%

O=c1[nH]cc(F)c(=O)[nH]1 + CN1CCN(c2cc(C(=O)Nc3cc4cc(-c5cnn(C)c5)ccc4cn3)ccn2)CC1
< 31.6 nM: IC50 (second compound 0.316 µM) | IC50 (second compound 1 µM) | IC50 (second compound 3.16 µM) | IC50 (second compound 10 µM)
> 10000 nM: IC50 (second compound 0.0316 µM)
6160 nM: IC50 (second compound 0.1 µM)
inactive: viability, T/C [1] 86.8% | viability, T/C [2] 85.2% | viability, T/C [3] 101% | viability, T/C [4] 86.2% | viability, T/C [5] 73% | viability, T/C [6] 56.3% | viability, T/C [7] 81.4% | viability, T/C [8] 76.6% | viability, T/C [9] 87% | viability, T/C [10] 82.6% | viability, T/C [11] 62.6% | viability, T/C [12] 40.8% | viability, T/C [13] 21.7% | viability, T/C [14] 19.2% | viability, T/C [15] 22.6% | viability, T/C [16] 23.1% | viability, T/C [17] 23.5% | viability, T/C [18] 21%
active: viability, T/C [19] 1.33% | viability, T/C [20] 0.66% | viability, T/C [21] 0.91% | viability, T/C [22] 1.78% | viability, T/C [23] 1.34% | viability, T/C [24] 1.32% | viability, T/C [25] 3.16% | viability, T/C [26] 0.66% | viability, T/C [27] 1.53% | viability, T/C [28] 0.93% | viability, T/C [29] 2.49% | viability, T/C [30] 0.81% | viability, T/C [31] 3.05% | viability, T/C [32] 0.66% | viability, T/C [33] 0.92% | viability, T/C [34] 1.07% | viability, T/C [35] 0.96% | viability, T/C [36] 0.38%
